11 compounds from PubChem BioAssay (NCI) can be followed below.

Holding throughout (experiment): NCI-60 cell line screen, 48 h
Assay [1] relates to 786-0 renal.
In assay [2] the test system is HCT-15 colon.
Assay [3] deals with HOP-92 NSCLC.
In assay [4] the test system is M14 melanoma.
In assay [5] the test system is MCF7 breast.
For assay [6], the system named is MDA-MB-435.
The subject of assay [7] is MOLT-4 leukemia.
Assay [8] relates to PC-3 prostate.
The test system of assay [9] is SK-MEL-2 melanoma.
In assay [10] the test system is T-47D breast.

“And” between values parts separate entries of the source, which are not always exact repeats. Equal values may be shown once.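 Step 1: Grow cells in 96-well plates. Step 2: Expose to compound for 48 hours at 5 concentrations. Step 3: Interpolate endpoints linearly; if unreached, use highest concentration. Abbreviation: GI50, concentration required for 50% inhibition of growth. The concentration for full growth arrest is given as TGI.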 Bounds are passed on as bounds.

Regarding `O=C(O)c1cc2ccccc2c(O)c1O`, the TGI in [1] is 27.6 µM; in assay [2] it was 42.6 µM; in assay [3] it was over 54.9 µM; in assay [4], 16.3 µM; in assay [5], 28.4 µM; in [6], 3.33 µM. Also, the TGI in [7] is over 66.8 µM; in assay [8] it was 37 µM; in [9] it was 14.6 µM; in assay [10], 57.7 µM.
Consider `O=c1cc(C(F)(F)F)c2cc3c(cc2o1)NCCC3`, for which the TGI in [1], in [2], in assay [3], in [4], in assay [5] and in assay [6] was over 100 µM each time. Also, the TGI in assay [7], in assay [8], in assay [9] and in assay [10] was over 100 µM throughout.
As to `CC(=O)Nc1ccc(/C=C/[N+](=O)[O-])cc1`, the TGI in [1] was 7.61 µM; in assay [2], over 19.6 µM; in assay [3], 17.4 µM; in assay [4], 7.01 µM; in [5], 9.72 µM; in [6] it was 9.23 µM. The TGI is 4.37 µM in assay [7], 16.7 µM in assay [8], 25.6 µM in assay [9] and over 27.9 µM in assay [10].
For the compound `OCCCCC#Cc1ccccc1C#Cc1ccccc1`, the GI50 in assay [1] was 8.6 µM; in assay [2], 11.7 µM; in assay [3] it was 9.55 µM; in assay [4] it was 10.1 µM; in assay [5] it was 21 µM; in [6] it was 13.7 µM. For the same compound, the GI50 was 17.8 µM in assay [7], 14.1 µM in assay [8], 40 µM in assay [9] and 7.53 µM in assay [10]. The TGI was 22.5 µM in [1]; 24.2 µM in assay [2]; 22.6 µM in assay [3]; 22.9 µM in [4]; 48.1 µM in assay [5]; 27.2 µM in [6]. Further, the TGI in assay [7] was 63.8 µM; in [8], 27.1 µM; in [9], over 100 µM; in [10] it was over 100 µM.
Take `O=Cc1c(-c2cc(O)ccc2O)nc2sccn12`: the GI50 is 3.83 µM in [1]; 12.5 µM in assay [2]; 10.7 µM in [3]; 13.8 µM in assay [4]; 14.3 µM in assay [5]; 15.6 µM in assay [6]. Besides, the GI50 is 2.52 µM in assay [7], 11.9 µM in assay [8], 20.1 µM in assay [9] and 12.3 µM in assay [10]. Moreover, the TGI in assay [1] was 15.9 µM; in [2], 39.3 µM; in assay [3], 27.3 µM; in assay [4] it was 30.1 µM; in assay [5], over 100 µM; in assay [6], 34.2 µM. Besides, the TGI in [7] is 11.5 µM; in [8], 38.3 µM; in assay [9], 55.9 µM; in [10] it was over 100 µM.
As to `O=C(/C=C/c1cccnc1)NCCCCC1CCN(C(=O)c2ccccc2)CC1`, the GI50 was over 100 µM in [1]; under 0.01 µM in assay [2]; 26.8 µM and > 32 µM in assay [3]; under 0.01 µM in assay [4]; under 0.01 µM in assay [6]; 31.1 µM and 21.7 µM in assay [7]. Moreover, the GI50 in assay [8] was under 0.01 µM; in assay [9], over 100 µM; in [10] it was 1.93 µM. The TGI in assay [1], in assay [2], in assay [3], in assay [4], in assay [5] and in [6] was over 100 µM each time. For the same compound, the TGI was over 100 µM in assay [7], over 100 µM in [8], over 100 µM in assay [9] and over 90.3 µM in assay [10].
In the case of `OCc1cn(Cc2cccc(Cl)c2)c2ccccc12`, the GI50 was 5.15 µM in assay [1]; 5.79 µM in assay [2]; 1.55 µM in assay [3]; 11.3 µM in assay [4]; 0.0488 µM in assay [5]; 14.8 µM in [6]. Moreover, the GI50 in assay [7] is 10.6 µM; in assay [8], 15.5 µM; in assay [9], 3.16 µM; in assay [10], under 0.0208 µM. Also, the TGI turned out to be 28.1 µM in [1]; 43.8 µM in [2]; 17.4 µM in assay [3]; 29.6 µM in [4]; 27.8 µM in assay [5]; 35.5 µM in assay [6]. Moreover, the TGI in assay [7] is 44.4 µM; in assay [8] it was 39.9 µM; in [9], 14.8 µM; in assay [10], 5.15 µM.
Consider `c1ccc(Cc2nc3ccc(Nc4ncnc5ccccc45)cc3[nH]2)cc1`, for which the GI50 in assay [1] was over 25 µM; in [2], over 25 µM; in assay [3], 9.26 µM; in assay [4], over 25 µM; in [5], over 25 µM; in [6], over 25 µM. Also, the GI50 in [7], in assay [8], in assay [9] and in assay [10] was over 25 µM each time. The TGI in assay [1], in assay [2], in [3], in [4], in assay [5] and in assay [6] was over 25 µM each time. For the same compound, the TGI in assay [7], in assay [8], in assay [9] and in assay [10] was over 25 µM each time.
In the case of `COP(=O)(OC)C(NC(c1ccccc1)c1ccccc1)c1ccc2c(c1)OCO2` (stereo unspecified), the GI50 was 29.5 µM in assay [1]; 30.1 µM in assay [2]; 12 µM in assay [3]; 23.1 µM in [4]; 26 µM in assay [5]; 33.3 µM in assay [6]. The GI50 in [7] was 7.85 µM; in [8], 16.4 µM; in assay [9], 23.8 µM; in assay [10], 27 µM. For the same compound, the TGI in assay [1] was determined as 74.9 µM; in assay [2] it was 95.1 µM; in [3] it was 26.3 µM; in assay [4], 61.3 µM; in assay [5], 79 µM; in assay [6] it was 94.8 µM. Also, the TGI in [7] came out at 29.4 µM; in assay [8], 66.3 µM; in [9] it was 50.2 µM; in [10], 84.7 µM.
As for `CCCC[C@H]1C(=O)O[C@H](C)[C@H](NC(=O)c2cccc(NC=O)c2O)C(=O)O[C@@H](C)[C@@H]1OC(=O)CC(C)C`, the TGI is 35 µM in assay [1]; 22 µM in [2]; 29.9 µM in assay [3]; 47.7 µM in assay [4]; 25.8 µM in assay [5]; 44.6 µM in [6]. Moreover, the TGI is 53 µM in [7], 32.9 µM in [8], 22.2 µM in [9] and 44.8 µM in [10].
As to `C(=N\Nc1ccccn1)/c1ccccn1`, the GI50 is 0.301 µM in [1]; 0.368 µM in [2]; 0.313 µM in [4]; 0.401 µM in [5]; 0.483 µM in [6]; 0.392 µM in [7]. Also, the results for the GI50 in assay [9] and in assay [10] were over 100 µM and 0.332 µM, respectively. The TGI in assay [2] is over 100 µM; in assay [3], over 82.7 µM; in [4], 57.2 µM; in assay [5] it was over 100 µM; in assay [6], over 100 µM; in assay [7], over 100 µM. Moreover, the TGI in assay [8], in assay [9] and in assay [10] was over 100 µM throughout.
